In one test the target is T1, CREBBP (1084-1701) (Homo sapiens, UniProt Q92793).
T1 construct: measured in the following biochemical assay using CREBBP (1084-1701); purchased
As to the kind of experiment: Biochemical assay for CREBBP (1084-1701), SAMDI. As to conditions: SAMDI, read-out: CREBBP Biochemistry IC50. The method in brief: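 CREBBP (1084-1701) preincubated with compound 30 min at RT, then substrate mix (biotin-H3 11-25 K14R/K23R peptide, acetyl-CoA) added for 30 min at RT. Reaction stopped with formic acid, neutralised with sodium bicarbonate. Peptide acetylation read by SAMDI mass spectrometry to derive IC50.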

For test [1], the system named is H3K18Ac in HB-CLS-2 cells. As to the kind of experiment: H3K18AC in-cell western (ICW) assay. Type of test: cell-based. The following applies: H3K18Ac in-cell western, read-out: CREBBP ICW IC50. In outline: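 HB-CLS-2 cells seeded 16–24 hours before 2 hr compound treatment at 37° C, 5% CO2, then methanol-fixed. H3K18Ac detected with rabbit monoclonal primary (overnight, 4° C) and 800CW anti-rabbit secondary; DRAQ5 stained DNA. Plates imaged at 700 and 800 nm for integrated intensity; IC50 in μM.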

For the next test, the system named is 647V cells. As to the kind of experiment: High throughput proliferation (HTP) assay. Type of test: cell-based. As to conditions: high throughput proliferation, read-out: CREBBP HTP IC50. The method in brief:
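Exponentially growing 647V cells in DMEM with 15% FBS were treated in triplicate with increasing compound concentrations at 37° C, 5% CO2. Viable cell number was read by CellTiter-Glo luminescence on day 7; IC50 in micromolar.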

In another test the target is T2, EP300 (P300(1048-1664)) (Homo sapiens, UniProt Q09472).
T2 construct: P300(1048-1664)
T2 sequence (Q09472 1048-1664): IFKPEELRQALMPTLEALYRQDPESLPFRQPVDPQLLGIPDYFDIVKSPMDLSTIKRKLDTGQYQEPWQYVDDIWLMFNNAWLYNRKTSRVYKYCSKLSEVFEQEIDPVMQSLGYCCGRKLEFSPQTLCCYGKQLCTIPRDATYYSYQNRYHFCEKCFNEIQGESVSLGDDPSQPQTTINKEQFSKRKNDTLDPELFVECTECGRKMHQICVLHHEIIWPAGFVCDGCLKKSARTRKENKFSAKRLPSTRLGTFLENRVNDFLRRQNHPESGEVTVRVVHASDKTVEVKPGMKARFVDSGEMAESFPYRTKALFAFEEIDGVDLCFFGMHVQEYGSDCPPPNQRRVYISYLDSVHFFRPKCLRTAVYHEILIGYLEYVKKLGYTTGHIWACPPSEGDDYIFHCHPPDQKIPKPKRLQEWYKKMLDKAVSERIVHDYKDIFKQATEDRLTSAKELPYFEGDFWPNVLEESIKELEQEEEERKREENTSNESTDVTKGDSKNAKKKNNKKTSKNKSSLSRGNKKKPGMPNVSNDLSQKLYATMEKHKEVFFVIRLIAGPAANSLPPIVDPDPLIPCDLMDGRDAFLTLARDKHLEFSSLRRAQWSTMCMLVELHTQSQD
As to the kind of experiment: Biochemical assay for EP300, SAMDI. The following applies: EP300, SAMDI; read-out: EP300 Biochemistry IC50. From the text: The following example describes materials and methods relating to a biochemical assay for EP300. IC50 values (micromolar (μM)) are summarized in Table 1, Table 2, and Table 3 under the column labeled: “EP300 Biochemistry IC50 (micromolar).”

Where two headings read alike, the source gives them in different places.

T1 sequence (Q92793 1084-1701): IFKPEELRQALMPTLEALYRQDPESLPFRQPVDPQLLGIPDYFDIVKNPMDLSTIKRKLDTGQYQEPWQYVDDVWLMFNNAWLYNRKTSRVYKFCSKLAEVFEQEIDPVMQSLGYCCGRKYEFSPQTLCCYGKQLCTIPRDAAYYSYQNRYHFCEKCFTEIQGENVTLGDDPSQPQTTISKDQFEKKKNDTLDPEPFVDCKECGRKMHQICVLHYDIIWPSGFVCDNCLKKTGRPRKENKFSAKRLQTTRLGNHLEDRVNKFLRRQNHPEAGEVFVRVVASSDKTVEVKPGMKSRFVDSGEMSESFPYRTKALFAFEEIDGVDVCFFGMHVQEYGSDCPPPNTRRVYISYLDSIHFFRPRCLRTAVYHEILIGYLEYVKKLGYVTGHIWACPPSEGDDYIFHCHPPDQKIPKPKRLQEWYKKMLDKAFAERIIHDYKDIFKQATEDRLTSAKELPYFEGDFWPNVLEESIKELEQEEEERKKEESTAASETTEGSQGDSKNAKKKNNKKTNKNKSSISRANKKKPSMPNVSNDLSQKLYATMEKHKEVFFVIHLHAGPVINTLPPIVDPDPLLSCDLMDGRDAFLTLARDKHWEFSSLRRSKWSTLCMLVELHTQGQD

Broadly, the IC50 is the point on the concentration scale where inhibition reaches its midpoint. For `CCn1ncc(CN(C)C(=O)c2nc(-c3cc(Cl)cc(OCCNC)c3)nc3ccc(Cl)cc23)c1C` [Compound 60], the IC50 at CREBBP (1084-1701) is 23 nM; in test [1] it was 880 nM; in the test on 647V cells (Homo sapiens, 647-V) it was 500 nM; on EP300 (P300(1048-1664)), 11 nM.
In the same order, the values of `CCc1ncc(CN(C)C(=O)c2cc(-c3ccc(NCCNC)c(C)n3)nc3ccc(Cl)cc23)o1` [Compound 560] are 142 nM, 242 nM, 448 nM and 412 nM.
Consider `CNCCNc1ccc(-c2cc(C(=O)N(C)Cc3cnc(C(C)C)n3C)c3cc(Cl)ccc3n2)nc1C` [Compound 544], for which the IC50 on CREBBP (1084-1701) stood at 14.6 nM; in test [1], 124 nM; with 647V cells (Homo sapiens, 647-V) it was 42.5 nM; at EP300 (P300(1048-1664)) it was 6 nM.
In the same order, the values of `CCn1ncc(CN(C)C(=O)c2nc(-c3ccc(OCCNC)c(Cl)c3)nc3ccc(OC)cc23)c1C` [Compound 152] are 3600 nM, 8900 nM, 1600 nM and 3600 nM.
In the same order, the values of `Cc1nc(-c2cc(C(=O)N(C)Cc3cnc(C(F)(F)F)n3C)c3cc(Cl)ccc3n2)ccc1NCCN(C)C` [Compound 598] are 105 nM, 316 nM, 283 nM and 282 nM.
Turning to `CCn1ncc(CN(C)C(=O)c2nc(-c3cc(NC)c4cn[nH]c4c3)nc3ccc(Cl)cc23)c1C` [Compound 551], the IC50 on CREBBP (1084-1701) was found to be 27 nM; in test [1], 153 nM; in the test on 647V cells (Homo sapiens, 647-V), 233 nM; at EP300 (P300(1048-1664)), 137 nM.
In the same order, the values of `CCn1ncc(CN(C)C(=O)c2nc(-c3ccc(OCCC(=O)NC)c(OC)c3)nc3ccc(Cl)cc23)c1C` [Compound 137] are 8300 nM, 5300 nM, 4700 nM and 7800 nM.
On the same counts, the results for `CCn1ncc(CN(C)C(=O)c2nc(-c3cc(Cl)c4nc[nH]c4c3)nc3ccc(COC)cc23)c1C` [Compound 4] are 12 nM, 57 nM, 37 nM and 3.7 nM.
On the same counts, the results for `CCn1ncc(CN(C)C(=O)c2nc(-c3cn[nH]c3)nc3ccc(Cl)cc23)c1C` [Compound 125] are 6300 nM, 4000 nM, 4100 nM and 3500 nM.
Regarding `CCn1ncc(CN(C)C(=O)c2cc(-c3cc(-c4ncc[nH]4)n(C)n3)nc3ccc(COC)cc23)c1C` [Compound 550], the IC50 on CREBBP (1084-1701) was 32.2 nM; in test [1] it was 128 nM; in the test on 647V cells (Homo sapiens, 647-V) it was 247 nM; on EP300 (P300(1048-1664)), 14.1 nM.
In the same order, the values of `CCc1ncc(CN(C)C(=O)c2nc(-c3cc(Cl)c4[nH]cnc4c3)nc3ccc(COC)cc23)n1C` [Compound 523] are 6.22 nM, 74.1 nM, 34.7 nM and 2.7 nM.
In the same order, the values of `CCc1ncc(CN(C)C(=O)c2nc(-c3cc(C)c4c(N)[nH]nc4c3)nc3ccc(Cl)cc23)n1C` [Compound 526] are 6.42 nM, 46.5 nM, 72 nM and 2 nM.
Take `CCn1ncc(CN(C)C(=O)c2nc(N3CCc4[nH]c(C)nc4C3)nc3ccc(Cl)cc23)c1C` [Compound 159]: the IC50 at CREBBP (1084-1701) turned out to be 20000 nM; in test [1], 10000 nM; in the test on 647V cells (Homo sapiens, 647-V), 10000 nM; at EP300 (P300(1048-1664)), 7700 nM.
Regarding `CCn1ncc(CN(C)C(=O)c2nc(-c3ccc(OCCCNC)c(C)c3C)nc3ccc(Cl)cc23)c1C` [Compound 446], the IC50 at CREBBP (1084-1701) was found to be 24.8 nM; in test [1], 112 nM; in the test on 647V cells (Homo sapiens, 647-V), 34.2 nM; at EP300 (P300(1048-1664)), 13.2 nM.
For `CCn1ncc(CN(C)C(=O)c2nc(-c3cc(Cl)cc(C(=O)NC)c3)nc3ccc(Cl)cc23)c1C` [Compound 392], the IC50 was determined as 50000 nM at CREBBP (1084-1701); 20000 nM in test [1] (HB-CLS-2 cells); 20000 nM in the test on 647V cells (Homo sapiens, 647-V, 647V cells); 50000 nM at EP300 (P300(1048-1664)).
For the compound `CCc1ncc(CN(C)C(=O)c2nc(-c3cccc(Cl)c3)nc3ccc(Cl)cc23)n1C` [Compound 37], the IC50 on CREBBP (1084-1701) is 3.4 nM; in test [1], 300 nM; in the test with 647V cells (Homo sapiens, 647-V), 290 nM; at EP300 (P300(1048-1664)), 6.1 nM.
In the same order, the values of `CCn1ncc(CN(C)C(=O)c2cc(-c3ccc(NCCOC)c(C)n3)nc3ccc(Cl)cc23)c1C` [Compound 568] are 23.6 nM, 127 nM, 260 nM and 31.1 nM.
In the same order, the values of `CCn1ncc(CN(C)C(=O)c2nc(-c3ccc(OCCOC)cc3Cl)nc3ccc(Cl)cc23)c1C` [Compound 96] are 740 nM, 1900 nM, 1800 nM and 1500 nM.
On the same counts, the results for `CCn1ncc(CN(C)C(=O)c2nc(-c3ccc(OCCCNC)c(C(C)(C)C)c3)nc3ccc(Cl)cc23)c1C` [Compound 462] are 9700 nM, 16400 nM, 1410 nM and 15800 nM.
On to `CCn1ncc(CN(C)C(=O)c2cc(-c3ccc(NCC(O)CN(C)C)c(C)n3)nc3ccc(Cl)cc23)c1C` (centres unmarked) [Compound 604], for which the IC50 was 28.5 nM on CREBBP (1084-1701); 64.8 nM in test [1]; 28.4 nM with 647V cells (Homo sapiens, 647-V); 11.4 nM at EP300 (P300(1048-1664)).
For `CCn1ncc(CN(C)C(=O)c2cc(-c3ccc(NC4COC4)c(C)n3)nc3ccc(Cl)cc23)c1C` [Compound 454], the IC50 on CREBBP (1084-1701) is 22.7 nM; in test [1] it was 141 nM; with 647V cells (Homo sapiens, 647-V) it was 133 nM; at EP300 (P300(1048-1664)) it was 5.5 nM.
On the same counts, the results for `CCn1ncc(CN(C)C(=O)c2nc(N3CCc4[nH]cnc4C3)nc3ccc(Cl)cc23)c1C` [Compound 167] are 18000 nM, 13000 nM, 11000 nM and 8000 nM.
In the same order, the values of `CCn1ncc(CN(C)C(=O)c2cc(-c3ccc(NCC(F)(F)CNC)c(C)n3)nc3ccc(Cl)cc23)c1C` [Compound 534] are 32.4 nM, 171 nM, 228 nM and 9.1 nM.
On the same counts, the results for `CCn1ncc(CN(C)C(=O)c2nc(-c3ccc(OCCNC)c(Cl)c3)nc3ccc(C4COC4)cc23)c1C` [Compound 498] are 5080 nM, 5550 nM, 2880 nM and 4980 nM.
Turning to `CCn1ncc(CN(C)C(=O)c2nc(-c3ccc(NCCNC)c(C)n3)nc3ccc(Cl)cc23)c1C` [Compound 79], the IC50 turned out to be 670 nM on CREBBP (1084-1701); 1200 nM in test [1]; 850 nM with 647V cells (Homo sapiens, 647-V); 2100 nM on EP300 (P300(1048-1664)).
On the same counts, the results for `CNCCNc1ccc(-c2cc(C(=O)N(C)Cc3cnc(C4CC4)n3C)c3cc(Cl)ccc3n2)nc1C` [Compound 540] are 20.5 nM, 82.8 nM, 23.3 nM and 6.1 nM.
For the compound `CCn1ncc(CN(C)C(=O)c2nc(-c3ccc(OCCNC(=O)OC(C)(C)C)c(C)c3)nc3ccc(Cl)cc23)c1C` [Compound 143], the IC50 at CREBBP (1084-1701) was 130 nM; in test [1], 6400 nM; in the test on 647V cells it was 4300 nM; on EP300 (P300(1048-1664)), 8100 nM.
Consider `CCn1ncc(CN(C)C(=O)c2nc(-c3ccc(C(=O)NC)c(C)c3)nc3ccc(Cl)cc23)c1C` [Compound 164], for which the IC50 stood at 52000 nM at CREBBP (1084-1701); 13000 nM in test [1]; 9800 nM with 647V cells (Homo sapiens, 647-V); 30000 nM at EP300 (P300(1048-1664)).
On the same counts, the results for `CCn1ncc(CN(C)C(=O)c2nc(-c3cc4c(NC(C)=O)n[nH]c4cc3C)nc3ccc(Cl)cc23)c1C` [Compound 455] are 353 nM, 1200 nM, 547 nM and 114 nM.

The values are drawn from patent US20220144812A1, “QUINOLINE DERIVATIVES AND THEIR USE FOR THE TREATMENT OF CANCER” (Epizyme, Inc., priority 2019, published 2022).
